# In the supplement of paper PMC10307832:
# How the values were obtained:
# Assay in all cases: relative viability (nuclei count vs DMSO), 5 days (fraction); higher = more cells survive
# [1] = compound: CN(C)C[C@@H]1CCn2cc(c3ccccc32)C2=C(C(=O)NC2=O)c2cn(c3ccccc23)CCO1 [Ruboxistaurin] + CC(=O)c1c(C)c2cnc(Nc3ccc(N4CCNCC4)cn3)nc2n(C2CCCC2)c1=O [Palbociclib] (partner 0.5 µM)
# Summary of the method: (§1)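 After 5 days of treatment, lung cancer cells in 1536-well plates were fixed and stained in a single step (final 0.05% Triton X-100, 1% formaldehyde, 1 ug/ml Hoechst) and their nuclei counted on 4× images. Treatment had been applied by pin tool the day after seeding as one drug alone or as a fixed anchor-drug dose with five library-drug doses (not always all listed) in √10 steps. Relative viability is the nuclei count of treated wells divided by that of vehicle wells, and values are medians of duplicate plates.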
# [2] = compound: CN(C)C[C@@H]1CCn2cc(c3ccccc32)C2=C(C(=O)NC2=O)c2cn(c3ccccc23)CCO1 [Ruboxistaurin] + CC(C)C[C@H](NC(=O)[C@H](Cc1ccccc1)NC(=O)c1cnccn1)B(O)O [Bortezomib] (partner 0.002 µM)
# Summary of the method: as §1
# [3] = compound: CN(C)C[C@@H]1CCn2cc(c3ccccc32)C2=C(C(=O)NC2=O)c2cn(c3ccccc23)CCO1 [Ruboxistaurin] + CS(=O)(=O)CCNCc1ccc(-c2ccc3ncnc(Nc4ccc(OCc5cccc(F)c5)c(Cl)c4)c3c2)o1 [Lapatinib] (partner 2 µM)
# Summary of the method: as §1
# [4] = compound: CN(C)C[C@@H]1CCn2cc(c3ccccc32)C2=C(C(=O)NC2=O)c2cn(c3ccccc23)CCO1 [Ruboxistaurin] + CS(=O)(=O)N1CCN(Cc2cc3nc(-c4cccc5[nH]ncc45)nc(N4CCOCC4)c3s2)CC1 [Pictilisib] (partner 1 µM)
# Summary of the method: as §1
# [5] = compound: CN(C)C[C@@H]1CCn2cc(c3ccccc32)C2=C(C(=O)NC2=O)c2cn(c3ccccc23)CCO1 [Ruboxistaurin] + Nc1nc2[nH]cc(CCc3ccc(C(=O)N[C@@H](CCC(=O)O)C(=O)O)cc3)c2c(=O)[nH]1 [Pemetrexed] (partner 0.2 µM)
# Summary of the method: as §1
Cell Line,relative viability ([1]; first compound 0.08 µM),relative viability ([1]; first compound 0.8 µM),relative viability ([1]; first compound 2.53 µM),relative viability ([1]; first compound 8 µM),relative viability ([2]; first compound 0.08 µM),relative viability ([2]; first compound 0.8 µM),relative viability ([2]; first compound 2.53 µM),relative viability ([2]; first compound 8 µM),relative viability ([3]; first compound 0.08 µM),relative viability ([3]; first compound 0.8 µM),relative viability ([3]; first compound 2.53 µM),relative viability ([3]; first compound 8 µM),relative viability ([4]; first compound 0.08 µM),relative viability ([4]; first compound 0.8 µM),relative viability ([4]; first compound 2.53 µM),relative viability ([4]; first compound 8 µM),relative viability ([5]; first compound 0.08 µM),relative viability ([5]; first compound 0.8 µM),relative viability ([5]; first compound 2.53 µM),relative viability ([5]; first compound 8 µM)
HCC-78,0.509,0.47,0.497,0.501,0.711,0.427,0.618,0.397,0.745,0.717,0.774,0.944,0.198,0.245,0.195,0.174,0.85,0.91,0.828,0.945
HCC-366,0.401,0.354,0.392,0.328,1.05,1.05,1.05,0.986,1.12,0.988,1.02,1.01,0.237,0.116,0.151,0.137,0.181,0.182,0.158,0.209
HCC-827,0.529,0.478,0.621,0.489,1.01,1.01,1.06,1.14,0.243,0.191,0.184,0.165,0.993,0.866,1.08,1.27,0.265,0.252,0.268,0.28
HOP-62,0.516,0.462,0.471,0.458,0.736,0.536,0.734,0.642,0.995,0.978,0.997,1,0.732,0.755,0.535,0.546,0.299,0.241,0.298,0.31
LC-2-ad,0.469,0.424,0.45,0.532,1.17,0.929,1.15,1.06,1.1,0.889,1.02,1.02,0.481,0.347,0.495,0.286,0.259,0.284,0.285,0.282
LCLC-97TM1,0.217,0.199,0.235,0.227,0.845,0.487,0.58,0.685,1.1,–,1.6,1.05,0.221,–,0.161,0.127,0.193,0.172,0.198,0.16
LCLC-103H,0.446,0.49,0.446,0.451,1.19,1.12,0.968,1.01,–,–,–,–,0.632,0.611,0.511,0.533,0.47,0.479,0.434,0.608
LK-2,0.768,0.726,0.75,0.74,–,–,–,–,1.07,0.866,0.938,0.739,0.595,0.52,0.652,0.303,0.266,0.346,0.309,0.242
NCI-H358,0.14,0.128,0.129,0.131,–,–,–,–,0.479,0.408,0.421,0.406,0.326,0.297,0.3,0.235,0.171,0.175,0.177,0.162
NCI-H441,0.234,0.174,0.248,0.202,0.636,0.296,0.431,0.448,–,–,–,–,0.475,0.392,0.566,0.356,0.254,0.307,0.287,0.278
NCI-H522,1.06,1.06,1.21,1.25,–,–,–,–,–,–,–,–,–,–,–,–,1.06,0.791,1.18,1.02
NCI-H596,–,–,–,–,0.978,0.443,0.932,1,1.08,0.965,1.04,0.848,0.472,0.352,0.374,0.346,0.542,0.473,0.478,0.444
NCI-H727,0.596,0.688,0.745,0.707,0.974,0.85,0.986,0.69,1.09,0.552,0.804,0.602,0.563,0.244,0.433,0.284,–,–,–,–
NCI-H1395,0.657,0.579,0.63,0.553,–,–,–,–,1.01,1.06,1.2,0.879,0.635,0.611,0.713,0.518,1.04,0.768,0.917,0.782
NCI-H1703,–,–,–,–,0.401,0.319,0.382,0.237,1.08,1.06,1.09,0.678,0.198,–,0.277,0.23,–,–,–,–
NCI-H1793,0.302,–,0.296,0.373,–,–,–,–,0.845,0.641,0.909,0.841,0.454,0.288,0.478,0.316,1.13,–,1.03,0.876
NCI-H1944,0.347,0.298,0.343,0.295,–,–,–,–,0.874,0.71,0.731,0.819,0.332,0.279,0.354,0.31,0.6,0.55,0.667,0.659
NCI-H2170,0.397,0.337,0.371,0.386,–,–,–,–,0.243,0.241,0.263,0.251,0.301,0.256,0.322,0.253,0.274,0.263,0.248,0.303
NCI-H2342,0.456,0.53,0.512,0.518,–,–,–,–,–,–,–,–,–,–,–,–,0.793,0.825,0.874,0.817
SK-MES-1,0.331,0.27,0.331,0.361,–,–,–,–,0.515,0.413,0.5,0.425,0.417,0.3,0.323,0.316,0.997,0.899,1.01,0.863
